Laboratory results as given in patent US11091428B2 (HAPLOGEN GMBH, priority 2016, dated 2021).
Read-outs that look alike come from different tables or passages of the source.

Experiments:
[1] = test system: picornaviruses (CVB1, HRV-A2, HRV-A23, EV-68); test: Anti-picornavirus cytopathic effect (CPE) reduction assay on HeLa H1 cells; type: cell-based; settings: Enterovirus B
How it was run: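 HeLa H1 cells pre-treated 2 h with serially diluted compound in DMEM/2% FBS, then infected at an MOI giving full CPE in 2 days. After 48 h at 37° C, viability read by CellTiterBlue fluorescence (ex 560/em 590 nm), normalised to infected and uninfected vehicle controls; EC50 by non-linear regression, category from mean of four viruses.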

PLA2G16 = biological target: T1, PLA2G16 (Homo sapiens, UniProt P53816); test: Enzyme activity assay for PLA2G16 (Red/Green BODIPY PC-A2 fluorescence); type: biochemical; settings: His-tagged PLA2G16, 4 min pre-incubation, 2 nM to 50 μM; read-out: IC50 values of the compounds determined in the enzyme activity assay for PLA2G16
T1 construct: Hexa-His (N); made in house; host or cells: E. coli BL21(DE3)
T1 sequence (P53816 1-162): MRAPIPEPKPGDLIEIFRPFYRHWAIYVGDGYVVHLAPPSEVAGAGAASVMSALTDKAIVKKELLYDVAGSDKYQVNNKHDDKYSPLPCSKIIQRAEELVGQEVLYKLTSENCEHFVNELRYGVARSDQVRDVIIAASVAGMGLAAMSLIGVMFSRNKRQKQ
How it was run: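 N-His-tagged human PLA2G16 from E. coli, Ni-NTA purified. Pre-incubated 4 min with compound (2 nM–50 μM final) in pH 8.5 Tris/NaCl buffer with 5 mM glutathione, then BODIPY PC-A2 in DOPC/DOPG/cholesterol vesicles added. Fluorescence (ex 480/em 530 nm) increase over 10 min taken as activity; IC50 by non-linear regression.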

[2] = HeLa H1, 48 h, HeLa H1 cells, 48 h, category from averaging the EC50 values from four picornaviruses (CVB1, HRV-A2, HRV-A23, EV68), read-out: EC50 values of the compounds determined in the anti-picornavirus assay

SMILES	EC50 [1, 2] [nM]	IC50 (PLA2G16) [nM]	EC50 ([1]; CVB1|EV68|HRVA2|HRVA23, HeLa H1, 48 h, HeLa H1 cells, 48 h, category from averaging the EC50 values from four picornaviruses (CVB1, HRV-A2, HRV-A23, EV68), read-out: EC50 values of the compounds determined in the anti-picornavirus assay) [nM]	EC50 ([1]; HeLa H1, 48 h, read-out: EC50 values of the compounds determined in the anti-picornavirus assay, HeLa H1 cells, 48 h, category from averaging the EC50 values from four picornaviruses (CVB1, HRV-A2, HRV-A23, EV68)) [nM]
O=C(NCC1CCCC1)C(=O)C1CCC(=O)N1CC1CC1 (stereo not shown) [FP 255, N-(Cyclopentylmethyl)-2-[1-(cyclopropylmethyl)-5-oxopyrrolidin-2-yl]-2-oxoacetamide]	1000 to 10000	< 1000		
COc1ccccc1N(C=O)C(C)C(=O)C(=O)NCc1cnccn1 (stereo not shown) [FP 104, 3-[N-(2-Methoxyphenyl)formamido]-2-oxo-N-[(pyrazin-2-yl)methyl]butanamide]	> 10000	1000 to 10000		
CC(C(=O)C(=O)NC1CC1)N(C=O)Cc1ccccc1 (stereo not shown) [FP 44, 3-(N-Benzylformamido)-N-cyclopropyl-2-oxobutanamide]	1000 to 10000	< 1000		
CC(C)C(=O)N(C)C(C)C(=O)C(=O)NCC1CCCCC1 (stereo not shown) [FP 144, N-(Cyclohexylmethyl)-3-(N,2-dimethylpropanamido)-2-oxobutanamide]	1000 to 10000	< 1000		
Cc1csc(CN2C(=O)CCC2C(=O)C(=O)NCC2CC2)n1 (stereo not shown)		< 1000	1000 to 10000	
O=C(NCCc1cnccn1)C(=O)C1CCC(=O)N1Cc1ccccc1 (stereo not shown) [FP 227, 2-(1-Benzyl-5-oxopyrrolidin-2-yl)-2-oxo-N-[2-(pyrazin-2-yl)ethyl]acetamide]	1000 to 10000	< 1000		
CC(C)C(=O)N1CCC(CN(C=O)C(C)C(=O)C(=O)NCC2CCCCC2)CC1 (stereo not shown) [FP 78, N-(Cyclohexylmethyl)-3-(AN{[1-(2-methylpropanoyl)piperidin-4-yl]methyl}formamido)-2-oxobutanamide]	> 10000	1000 to 10000		
O=C(NCc1ccccn1)C(=O)C1CCC(=O)N1Cc1ccccc1 (stereo not shown) [FP 230, 2-(1-Benzyl-5-oxopyrrolidin-2-yl)-2-oxo-N-[(pyridin-2-yl)methyl]acetamide]	> 10000	< 1000		
CC(NC(=O)C1CCC(F)(F)CC1)C(=O)C(=O)NCC1CC1 (stereo not shown) [FP 173, N-(Cyclopropylmethyl)-3-[(4,4-difluorocyclohexyl)formamido]-2-oxobutanamide]	> 10000	1000 to 10000		
CC(C(=O)C(=O)NCC1CCCCC1)N(C=O)[C@H]1CC[C@@H](NC(=O)OC(C)(C)C)CC1 (stereo partly shown) [FP 54, tert-Butyl N-[(1s,4s)-4-(N{1-[(cyclohexylmethyl)carbamoyl]-1-oxopropan-2-yl}-formamido)cyclohexyl]carbamate]	> 10000	< 1000		
O=C(NC1CCN(S(=O)(=O)C2CCCC2)CC1)C(=O)[C@H]1CCC(=O)N1Cc1ccccc1 [FP 321, 2-[(2R)-1-Benzyl-5-oxopyrrolidin-2-yl]-N-[1-(cyclopentanesulfonyl)piperidin-4-yl]-2-oxoacetamide]	< 1000	< 1000		
O=C(NC1CC(F)(F)C1)C(=O)[C@H]1CCC(=O)N1Cc1ccccc1 [FP 268, 2-[(2R)-1-Benzyl-5-oxopyrrolidin-2-yl]-N-(3,3-difluorocyclobutyl)-2-oxoacetamide]	< 1000	< 1000		
CC(NC(=O)C1CCN(CC(F)(F)F)CC1)C(=O)C(=O)NCC1CCCCC1 (stereo not shown) [FP 206, N-(Cyclohexylmethyl)-2-oxo-3-{[1-(2,2,2-trifluoroethyl)piperidin-4-yl]formamido}-butanamide]	1000 to 10000	< 1000		
CC(C)C(C(=O)C(=O)NCC1CC1)N(C=O)CC1CCOCC1 (stereo not shown) [FP 34, N-(Cyclopropylmethyl)-4-methyl-3-{N-[(oxan-4-yl)methyl]formamido}-2-oxopentanamide]	1000 to 10000	< 1000		
COc1ccccc1N(C=O)C(C)C(=O)C(=O)NCC(C)C (stereo not shown) [FP 100, 3-[N-(2-Methoxyphenyl)formamido]-N-(2-methylpropyl)-2-oxobutanamide]	1000 to 10000	< 1000		
CC(OC1CCCCC1)C(=O)C(=O)NCC1CCC1 (stereo not shown) [FP 126, N-(Cyclobutylmethyl)-3-(cyclohexyloxy)-2-oxobutanamide]	< 1000	< 1000		
CC(C)C(=O)N1CC(NC(=O)C(=O)[C@H]2CCC(=O)N2Cc2ccccc2)C1 [FP 316, 2-[(2R)-1-Benzyl-5-oxopyrrolidin-2-yl]-N-[1-(2-methylpropanoyl)azetidin-3-yl]-2-oxoacetamide]	1000 to 10000	< 1000		
O=C(NC1CCCC1)C(=O)[C@H]1CCC(=O)N1Cc1ccccc1 [FP 239, 2-[(2R)-1-Benzyl-5-oxopyrrolidin-2-yl]-N-cyclopentyl-2-oxoacetamide]	< 1000	< 1000		

SMILES	EC50 [1, 2] [nM]	IC50 (PLA2G16) [nM]	EC50 ([1]; CVB1|EV68|HRVA2|HRVA23, HeLa H1, 48 h, HeLa H1 cells, 48 h, category from averaging the EC50 values from four picornaviruses (CVB1, HRV-A2, HRV-A23, EV68), read-out: EC50 values of the compounds determined in the anti-picornavirus assay) [nM]	EC50 ([1]; HeLa H1, 48 h, read-out: EC50 values of the compounds determined in the anti-picornavirus assay, HeLa H1 cells, 48 h, category from averaging the EC50 values from four picornaviruses (CVB1, HRV-A2, HRV-A23, EV68)) [nM]
O=C(NCC1CC1)C(=O)C1CCC(=O)N1c1ccccc1 (stereo not shown) [FP 264, N-(Cyclopropylmethyl)-2-oxo-2-(5-oxo-1-phenylpyrrolidin-2-yl)acetamide]	> 10000	1000 to 10000		
COc1ccccc1N(C=O)C(C)C(=O)C(=O)NCc1cccc(Cl)c1 (stereo not shown) [FP 1, N-[(3-Chlorophenyl)methyl]-3-[N-(2-methoxyphenyl)formamido]-2-oxobutanamide]	< 1000	< 1000		
Cc1ccccc1C(=O)N[C@@H](C)C(=O)C(=O)NCC1CC1 (single isomer, unassigned) [FP 157]	1000 to 10000	< 1000		
CC(C)NC(=O)C(=O)C(C)N(C=O)C1CCCCC1 (stereo not shown) [FP 36, 3-(N-Cyclohexylformamido)-2-oxo-N-(propan-2-yl)butanamide]	1000 to 10000	< 1000		
CC(C)C(OCC1CCOCC1)C(=O)C(=O)NCC1CC1 (stereo not shown) [FP 137, N-(Cyclopropylmethyl)-4-methyl-3-[(oxan-4-yl)methoxy]-2-oxopentanamide]	> 10000	< 1000		
O=C(NCC1CCCCC1)C(=O)C1CCC(=O)N1Cc1ccc2c(c1)CNC2=O (stereo not shown) [FP 244, N-(Cyclohexylmethyl)-2-oxo-2-{5-oxo-1-[(1-oxo-2,3-dihydro-1H-isoindol-5-yl)methyl]-pyrrolidin-2-yl}acetamide]	1000 to 10000	< 1000		
CC(NC(=O)c1ccccc1)C(=O)C(=O)NCC1CCC1 (stereo not shown) [FP 181, N-(Cyclobutylmethyl)-2-oxo-3-(phenylformamido)butanamide]	1000 to 10000	< 1000		
CC(C)(C)C(=O)N1CCC(NC(=O)C(=O)[C@H]2CCC(=O)N2Cc2ccccc2)CC1 [FP 314, 2-[(2R)-1-Benzyl-5-oxopyrrolidin-2-yl]-N-[1-(2,2-dimethylpropanoyl)piperidin-4-yl]-2-oxoacetamide]	1000 to 10000	< 1000		
CC[C@@H](C)NC(=O)C(=O)C(C)N(C=O)c1ccccc1OC (stereo partly drawn) [FP 102, N-[(2R)-Butan-2-yl]-3-[N-(2-methoxyphenyl)formamido]-2-oxobutanamide]	1000 to 10000	< 1000		
O=C(NCc1cccc(=O)[nH]1)C(=O)C1CCC(=O)N1Cc1ccc(Cl)cc1 (stereo not shown) [FP 247, 2-{1-[(4-Chlorophenyl)methyl]-5-oxopyrrolidin-2-yl}-2-oxo-N-[(6-oxo-1,6-dihydropyridin-2-yl)methyl]acetamide]	1000 to 10000	< 1000		
CC(F)(F)CNC(=O)C(=O)[C@H]1CCC(=O)N1Cc1ccccc1 [FP 295, 2-[(2R)-1-Benzyl-5-oxopyrrolidin-2-yl]-N-(2,2-difluoropropyl)-2-oxoacetamide]	< 1000	< 1000		
COc1ccccc1N(C=O)C(C)C(=O)C(=O)NC(C)(C)c1cccc(Cl)c1 (stereo not shown) [FP 11, N-[2-(3-Chlorophenyl)propan-2-yl]-3-[N-(2-methoxyphenyl)formamido]-2-oxobutanamide]	< 1000	< 1000		
O=C(NCCN1CCCCC1=O)C(=O)[C@H]1CCC(=O)N1Cc1ccccc1 [FP 292, 2-[(2R)-1-Benzyl-5-oxopyrrolidin-2-yl]-2-oxo-N-[2-(2-oxopiperidin-1-yl)ethyl]acetamide]	1000 to 10000	< 1000		
CC1(NC(=O)C(=O)C2CCC(=O)N2Cc2ccccc2)CC1 (stereo not shown) [FP 246, 2-(1-Benzyl-5-oxopyrrolidin-2-yl)-N-(1-methylcyclopropyl)-2-oxoacetamide]	1000 to 10000	< 1000		
NC(=O)c1cccc(CN2C(=O)CCC2C(=O)C(=O)NCC2CCCCC2)c1 (stereo not shown) [FP 249, 3-[(2-{[(Cyclohexylmethyl)carbamoyl]carbonyl}-5-oxopyrrolidin-1-yl)methyl]benzamide]		< 1000		< 1000
CCCC(NC(=O)c1ccccc1)C(=O)C(=O)NCC1CC1 (stereo not shown) [FP 154, N-(Cyclopropylmethyl)-2-oxo-3-(phenylformamido)hexanamide]	1000 to 10000	< 1000		
O=C(NC1CC1)C(=O)C1CCC(=O)N1Cc1ccc(F)cc1 (stereo not shown) [FP 242, N-Cyclopropyl-2-{1-[(4-fluorophenyl)methyl]-5-oxopyrrolidin-2-yl}-2-oxoacetamide]	1000 to 10000	< 1000		
